Experimental data from PMC6100073, “Activation of Anthracene Endoperoxides in Leishmania and Impairment of Mitochondrial Functions” (Molecules : A Journal of Synthetic Chemistry and Natural …, 2018).

Tested on: LtP
Test: Uncoupling of LtP respiration in presence of oligomycin (OxoPlates)
Format: cell-based, Leishmania tarentolae
Settings: 38 µM Oligo; for uncoupling effect (recovery of O2 consumption in the presence of Oligo): 0.31–5.0 µM CCCP or 12.5–200.0 µM other compounds
Procedure: The uncoupling experiments using OxoPlates were carried out in analogy to oxygen consumption measurements of LtP. An oligomycin (Oligo) premix in aBHI was prepared leading to a final concentration of 38 µM oligomycin (Oligo). Each well of the second row was filled with 50 µL of aBHI. From the third row on, each well was filled with 50 µL of the Oligo premix and to the fourth row additional 50 µL Oligo premix was added. The respective amounts of the substances (Ac, AQ, AcEP1117, AcEP1118, AcEP1129, AcEP1130, CCCP) were added and a serial 1:2 dilution was performed. Measurements were carried out as described above. The oxygen consumption rates were normalized to the wells that contained only LtP. For each concentration measurements were done in triplicates.

SMILES | uncoupling effect (recovery of O2 consumption in the presence of Oligo) | concentration at which regain of oxygen consumption (uncoupling) is visible (declines at higher concentrations)
O=C1c2ccccc2C(=O)c2ccccc21 [AQ, anthraquinone, reference compound] | Neither Ac nor AQ displayed an uncoupling effect | –
c1ccc2cc3ccccc3cc2c1 [Ac, anthracene] | Neither Ac nor AQ displayed an uncoupling effect | –
CC12OOC(c3ccccc31)c1ccccc12 [AcEP1129, 9-methyl-9,10-dihydro-9,10-epidioxidoanthracene] | a trend for uncoupling was observed at lower concentrations | 25 µM
c1ccc2c(c1)C1OOC2c2ccccc21 [AcEP1117, 9,10-dihydro-9,10-epidioxidoanthracene] | no strong uncoupling was observed except for AcEP1117 at 200 µM | –
